Data: PubChem BioAssay (NCI)
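Growth conditions: 96-well plates. Treatment: test compound, 48 hours, 5 concentrations. Analysis: linear interpolation between bracketing concentrations; unreached endpoints set to highest concentration. TGI: concentration producing complete growth inhibition.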

Columns and labels:
Experiment in all cases: NCI-60 cell line screen, 48 h
786-0 renal = tested on: 786-0 renal
A498 renal = tested on: A498 renal
A549 NSCLC = tested on: A549 NSCLC
ACHN renal = tested on: ACHN renal
BT-549 breast = tested on: BT-549 breast
CAKI-1 renal = tested on: CAKI-1 renal
CCRF-CEM leukemia = tested on: CCRF-CEM leukemia
COLO 205 colon = tested on: COLO 205 colon
DU-145 prostate = tested on: DU-145 prostate
EKVX NSCLC = tested on: EKVX NSCLC
HCC-2998 colon = tested on: HCC-2998 colon
HCT-116 colon = tested on: HCT-116 colon
HCT-15 colon = tested on: HCT-15 colon
HL-60(TB) leukemia = tested on: HL-60(TB) leukemia
HOP-62 NSCLC = tested on: HOP-62 NSCLC
HOP-92 NSCLC = tested on: HOP-92 NSCLC
HS 578T breast = tested on: HS 578T breast
HT29 colon = tested on: HT29 colon
IGROV1 ovarian = tested on: IGROV1 ovarian
K-562 leukemia = tested on: K-562 leukemia
KM12 colon = tested on: KM12 colon
LOX IMVI melanoma = tested on: LOX IMVI melanoma
M14 melanoma = tested on: M14 melanoma
MALME-3M melanoma = tested on: MALME-3M melanoma
MCF7 breast = tested on: MCF7 breast
MDA-MB-231 breast = tested on: MDA-MB-231 breast
MDA-MB-435 = tested on: MDA-MB-435
MDA-N = tested on: MDA-N
NCI-H226 lung = tested on: NCI-H226 lung
NCI-H23 lung = tested on: NCI-H23 lung
NCI-H460 lung = tested on: NCI-H460 lung
NCI-H522 lung = tested on: NCI-H522 lung
NCI/ADR-RES ovarian = tested on: NCI/ADR-RES ovarian
OVCAR-3 ovarian = tested on: OVCAR-3 ovarian
OVCAR-4 ovarian = tested on: OVCAR-4 ovarian
OVCAR-5 ovarian = tested on: OVCAR-5 ovarian
OVCAR-8 ovarian = tested on: OVCAR-8 ovarian
PC-3 prostate = tested on: PC-3 prostate
RPMI-8226 leukemia = tested on: RPMI-8226 leukemia
RXF 393 renal = tested on: RXF 393 renal
SF-268 CNS = tested on: SF-268 CNS
SK-MEL-2 melanoma = tested on: SK-MEL-2 melanoma
SK-MEL-28 melanoma = tested on: SK-MEL-28 melanoma
SK-MEL-5 melanoma = tested on: SK-MEL-5 melanoma
SK-OV-3 ovarian = tested on: SK-OV-3 ovarian
SN12C renal = tested on: SN12C renal
SNB-19 CNS = tested on: SNB-19 CNS
SNB-75 CNS = tested on: SNB-75 CNS
SR leukemia = tested on: SR leukemia
SW-620 colon = tested on: SW-620 colon
T-47D breast = tested on: T-47D breast
TK-10 renal = tested on: TK-10 renal
U251 CNS = tested on: U251 CNS
UACC-257 melanoma = tested on: UACC-257 melanoma
UACC-62 melanoma = tested on: UACC-62 melanoma
UO-31 renal = tested on: UO-31 renal

Measured: TGI

O=C(O)C(Cc1cccs1)C(=O)O
> 100 µM: 786-0 renal | A498 renal | A549 NSCLC | ACHN renal | BT-549 breast | CAKI-1 renal | CCRF-CEM leukemia | COLO 205 colon | DU-145 prostate | EKVX NSCLC | HCC-2998 colon | HCT-116 colon | HCT-15 colon | HL-60(TB) leukemia | HOP-62 NSCLC | HOP-92 NSCLC | HS 578T breast | HT29 colon | IGROV1 ovarian | K-562 leukemia | KM12 colon | LOX IMVI melanoma | M14 melanoma | MALME-3M melanoma | MCF7 breast | MDA-MB-231 breast | MDA-MB-435 | MDA-N | NCI-H226 lung | NCI-H23 lung | NCI-H460 lung | NCI-H522 lung | NCI/ADR-RES ovarian | OVCAR-3 ovarian | OVCAR-4 ovarian | OVCAR-5 ovarian | OVCAR-8 ovarian | PC-3 prostate | RPMI-8226 leukemia | RXF 393 renal | SF-268 CNS | SK-MEL-2 melanoma | SK-MEL-28 melanoma | SK-MEL-5 melanoma | SK-OV-3 ovarian | SN12C renal | SNB-19 CNS | SNB-75 CNS | SR leukemia | SW-620 colon | T-47D breast | TK-10 renal | U251 CNS | UACC-257 melanoma | UACC-62 melanoma | UO-31 renal
